A melting point compilation (Tetko et al.; mined from patent text by program, amines drawn as free bases though some values may be those of a salt)

| SMILES | melting point [°C] |
| --- | --- |
| CCOC(=O)C(C(=O)C(C)C)C1c2ccccc2C(=O)N1c1ccc2ccc(Cl)nc2n1 (stereo not given) | 146 |
| O=C1NC(=O)C2(c3cccc([N+](=O)[O-])c3)CC12 (stereo not given) | 173 to 174 |
| CCOC(=O)c1c(N2CCN(C(=O)c3cccs3)CC2)c2cc(Cl)cnc2n(CC(=O)c2ccccc2)c1=O | 227 |
| O=C1CCC2(c3ccc(-c4ccc(OC(F)(F)F)cc4)cc3)OCC(c3ccccc3)N12 (stereo not given) | 104 |
| CNc1cccc(Cl)n1 | 63.5 to 64.5 |
| CCCCCCCCN1C(=O)C2C3CCC(O3)C2C1=O (stereo not given) | 36 to 37 |
| OCc1csc(Cl)c1Cl | 63 to 65 |
| C[C@H]1[C@H](OS(C)(=O)=O)CN1C(c1ccccc1)c1ccccc1 (relative stereo) | 68 to 71 |
| CC(=O)NCC(CCl)OC(C)=O (stereo not given) | 68 to 69.5 |
| Cc1nc2nccc(Cl)c2cc1Br | 160 to 164 |
| CCNC(=O)NCCNc1nc(-c2ccc(F)cc2C)c2ccc(=O)n(-c3c(F)cccc3F)c2n1 | 130 to 133 |
| Cc1cc(-n2ccnc2)c2cccc(OCc3c(Cl)ccc(S(=O)(=O)N4CCCC4C(=O)NCC4CCN(C(=O)CC(=O)OC(C)(C)C)CC4)c3Cl)c2n1 (stereo not given) | 101 |
| O=C(CCCNC(=O)C(=O)c1cn2c3c(cccc13)CCC2)NO | 95 to 97 |
| CCC(NC(=O)c1ccc(Cl)cc1)NC(=NC#N)Nc1cccnc1 (stereo not given) | 181 to 183 |
| Cc1c(I)c(=O)n(C2CCCC2)c2nc(Nc3ccc(N4CCNCC4)cn3)ncc12 | > 240 |
| Clc1cccc(Nc2ccc(Oc3ccccc3)cc2)n1 | 69 to 73 |
| CCC[C@H]1C(=O)N(S(=O)(=O)c2cccc3ccccc23)[C@H]2CCN(S(=O)(=O)CCCN3CCOCC3)[C@H]12 (relative stereo) | 146 to 148 |
| CCCOC(=O)C1=NN(c2ccccc2)C(C(=O)OCCC)=NN1c1ccccc1 | 82.5 to 83 |
| CSc1ccc(C(C#N)=NO)cc1SC | 131 to 133 |
| O=c1[nH]c2cc(Cl)ccc2n1CCCN1CCC(O)(c2ccc(Cl)cc2)CC1 | 191 |
| O=Nc1c(-c2ccccc2)nc2ncccn12 | 223 to 225 |
| CCCCCCCCCCCCc1c[nH]c2cc(C(=O)OC)ccc12 | 85 to 89 |

| SMILES | melting point [°C] |
| --- | --- |
| C(=C\c1nc(COc2ccc(CCCn3ccnc3)cc2)co1)/c1ccco1 | 122 to 123 |
| O=C(c1ccc2nonc2c1)N1CC=CC1 | 117 to 118 |
| O=C(O)[C@@H]1C[C@@H](SC(c2ccccc2)(c2ccccc2)c2ccccc2)CN1S(=O)(=O)c1ccc2ccccc2c1 | 64 to 69 |
| C#CC(O)(C(Oc1ccc(F)cc1)n1cncn1)C(C)(C)C (stereo not given) | 134 to 135 |
| Cn1c(=O)[nH]c(N)c(NCc2ccccc2)c1=O | 206 to 218 |
| O=C1NCCCc2cc(CCCl)sc21 | 156 to 158 |
| Cc1cc(Nc2nccc(-c3sc(CO)nc3C)n2)ccc1N1CCOCC1 | 93 to 94 |
| O=[N+]([O-])c1ccc2c(C3=CCC4(CC3)OCCO4)c[nH]c2c1 | 259 to 261 |
| COC(=O)CCC(=O)c1cc2c(cc1Cl)CC(NC(=O)OC)CC2 (stereo not given) | 86 to 89 |
| CCCCNc1c(C(=O)OCC)c(C)nc2[nH]nnc12 | 188 to 189 |
| C=CCCCCCCOc1ccc(C(CC(C(=O)OCC)C(=O)OCC)NC(C)=O)cc1 (stereo not given) | 50 to 53 |
| N=C(NNC(=O)c1ccccc1O)C(Cl)(Cl)Cl | 168 to 169 |
| Cc1nn2c(C(F)(F)F)cc(-c3ccc(F)c(Cl)c3)nc2c1C#N | 196 |
| CC1CCc2ccc(OCC(O)CNC(C)(C)C)cc2O1 (stereo not given) | 92 to 94 |
| COC(=O)CCN(C)CCNC(=O)c1nc(Cl)c(N)nc1N | 136 to 137 |
| Cc1ccc(NP(N)(N)=O)c([N+](=O)[O-])c1 | > 180 |
| Cc1nc(Cc2ccc([N+](=O)[O-])cc2)no1 | 66 to 67 |
| CC(O)c1cccc(-c2ccc(CC34CCCN3C(=O)N(c3cc(Cl)cc(Cl)c3)C4=O)cc2)c1 (stereo not given) | 66.5 |
| CN(C)C=NC(=N[N+](=O)[O-])N(C)Cc1ccc(Cl)nc1 | 85 to 89 |
| CCCCCCCCc1ccc(-c2ccc(O)c(F)c2)nc1 | 73.5 to 74.6 |
| CC(C)=NNC(=O)NCCCN(C)C | 49 to 53 |
| CCCCc1nn(-c2cc(NC(C)=O)ccc2Cl)c(=O)n1Cc1ccc(-c2cc(CCC)ccc2S(=O)(=O)NC(=O)OC(C)(C)C)cc1F | < 130 |

| SMILES | melting point [°C] |
| --- | --- |
| CSC1CCN(C(=O)CCSC(C)=O)C1C(=O)O (stereo not given) | 153 to 157 |
| Nc1nc2c(sc(=O)n2Cc2ccc(Cl)cc2)c(=O)[nH]1 | > 320 |
| NS(=O)(=O)c1ccc(-c2cc(F)c(F)cc2-c2ccc(F)c(Cl)c2)cc1 | 162 to 163 |
| COC(=O)C(=O)c1cc2ccccc2n1S(=O)(=O)c1ccccc1 | 111 to 112 |
| Clc1ccc2c(c1)C(c1ccccc1Cl)=NCc1nccn1-2 | 179 to 180 |
| O=C(O)CSCCSc1ccc(O)cc1 | 105 |
| Oc1ncnc2c1c(-c1ccco1)nn2Cc1ccccc1 | 242 |
| Nc1nc2ccccc2c2c1ncn2CCCCCC(=O)c1ccccc1 | 163 to 165 |
| CC12CCCC1C1=CCc3cc(O)ccc3C1CC2 (stereo not given) | 130 to 134 |
| CN(O)C(=O)Cc1ccc(-c2ccc(OCc3ccc4ccccc4n3)cc2)c(F)c1 | 153 to 155 |
| Cc1[nH]c(=S)n(Nc2ccc(Cl)cc2)c1-c1ccccc1 | 212 to 214 |
| COc1cc(C(=O)N2Cc3ccc(C(=O)NCc4ccc(OC(F)(F)F)cc4)n3Cc3ccccc32)ccc1-c1ccccc1C | 145 to 149 |
| O=C(Cc1ccc(F)cc1)NC1CCN(Cc2ccc(Br)cc2)CC1 | 144 |
| CC1(C)CCC(C)(C)c2cc(C(N)C(=O)Nc3ccc(C(=O)OCc4ccccc4)cc3)ccc21 (stereo not given) | 196 to 197 |
| COC(=O)Cc1nc2nc(C)cc(Cl)n2n1 | 111 to 112 |
| CC(=O)Nc1nc(CCCCl)cs1 | 110 to 112 |
| CN1C(=O)CC[C@]2(C)c3ccc(Sc4ccc(-c5ccccc5)nn4)cc3CC[C@@H]12 | 199 to 200 |
| Clc1ccc(NN=Cc2ccc(Oc3nn(Cc4ccccc4)c4ccccc34)o2)nn1 | 200 to 202 |
| Cc1ccnc(Cl)c1C(N)=O | 168 to 170 |
| CC(C)C[C@H](C(=O)O)N1CC[C@]2(CCCN2C(=O)C(C)C)C1=O | 68 to 69 |
| OC(c1ccc(Cl)cc1Cl)C(Oc1ccc(Cl)cc1)n1ccnc1 (stereo not given) | 108 to 110 |
| CC(C)n1nc(-c2sc(NCc3ccccc3)nc2-c2ccccc2)ccc1=O | 157 to 158 |

Now from value to molecule:

| melting point [°C] | SMILES |
| --- | --- |
| 114 | CC(C)On1nnc2ccc(Cn3ccnc3)cc21 |
| 123 to 124 | CCOC(=O)c1c(C(=O)OCC)c(-c2ccc(OC(C)C)c(OC(C)C)c2)c2cc3c(cc2c1O)OCO3 |
| 143 to 146 | O=[N+]([O-])c1cc(Br)ccc1-c1ccc(Br)cc1[N+](=O)[O-] |
| 269 to 271 | COC(=O)c1cc(O)c2c(ccc3sc4ccc(F)cc4c32)n1 |
| 168 to 169 | COc1ccc(C2SC(=O)NC2=O)cc1C(=O)NCc1ccc(C(F)(F)F)cc1 (stereo not given) |
| 135 to 137 | CCCOC(Cc1ccc(OCCc2nc(C(C)(C)C)oc2C)c2ccccc12)C(=O)O (stereo not given) |
| 163 to 165 | Cn1cc(C=O)c2ccc3oc4ccccc4c3c21 |
| 158 to 160 | COc1ccc(/C(=C\C=C\C2CC2)C(=O)O)cc1 |
| 130 | CCOc1ccc2cc(N3CC(COC)OC3=O)ccc2c1 (stereo not given) |
| 148 to 149 | COc1ccc(C#Cc2cc(OC)c(OC)cc2C=O)cc1OC |
| 118 to 123 | CCCCCCn1nc(-c2ccc(C(F)(F)F)cc2)cc1CCC(=O)c1ccc(OCC(=O)O)c(C)c1 |
| 82 to 83 | CCc1cc2c(cc1Sc1ccc(C(=O)O)cc1)C(C)(C)CCC2(C)C |
| 155 to 158 | CC1=C(C(=O)OC(C)C)C(c2ccc(F)cc2Cl)N=C(c2c(F)cccc2F)N1 (stereo not given) |
| 130 to 132 | CNc1nc(-c2cccc(NC(=O)c3ccc(OC)c(Cl)c3)c2)c2cc(OC)c(OC)cc2n1 |
| 159 to 161 | Cc1ccc(C(=O)O)cc1OCc1ccccc1 |
| 157 to 158 | COc1ccc2c(c1)CC(=O)c1sccc1C2=C1CCN(C)CC1 |
| 220 to 221 | COc1cccc(Cn2nc(C(=O)O)c3c2-c2ccc(OCc4cncnc4)cc2CC3)c1 |

| melting point [°C] | SMILES |
| --- | --- |
| 46 to 48 | COc1ccc(C2(C#Cc3cccc([N+](=O)[O-])c3)CCCC(=O)C2)cc1OC1CCCC1 (stereo not given) |
| 136 to 138 | C=CCNC(=O)c1ccc(-n2c(C)ccc2C)cc1Br |
| 128 to 129 | COc1ccc(C2=C(c3ccc(S(C)(=O)=O)cc3)CCC2)cc1F |
| 64 to 66 | COc1ccc([N+](=O)[O-])c(C(C)=O)c1OC |
| 100 to 102 | COc1cc(CO)cc(OC)c1Br |
| 87 to 88 | CCOC(=O)c1sc2ccc(Br)cc2c1C |
| 149 to 151 | COC(=O)c1c(Cl)cc(Cl)cc1NC(=O)CSc1ccc(O)cc1 |
| 175 to 176 | CCOc1cc(N(CC)CC)ccc1C(=O)c1nc2ccccc2nc1C(=O)O |
| 244 to 245 | CC(C)(C)C(NC(=O)c1cccc(Br)c1)Nc1c(Nc2cccnc2)c(=O)c1=O (stereo not given) |
| 159 to 160 | CCOc1cc(C=O)ccc1OCc1nc(-c2ccco2)oc1C |
| 105 to 106 | COc1cc(C2=NCCc3cc(C)ccc32)cc(OC)c1OC |
| 266 to 271 | Cn1c(Cc2ccc(Cl)cc2Cl)nc2cc(C(=O)O)ccc2c1=O |
| 138 to 140 | COc1ccc(Cl)cc1C(=O)NS(=O)(=O)c1ccc(C(=O)Cl)cc1 |
| 178 | COc1ccc(-c2nc(-c3ccccc3)ccc2C(=O)O)cc1OC |
| 151 to 152 | COc1cc(OC)nc(Oc2c(Cl)cccc2C(=O)O)n1 |
| 177 to 179 | COc1cn(-c2ccc(-n3nccc3OC(F)F)cc2F)nc(-c2ccnn2-c2ccccc2)c1=O |
| 186 to 187 | COc1ccc(-n2nnnc2C(F)(F)F)cc1[C@H]1CO[C@]2(CCCN(Cc3nc(=O)[nH][nH]3)[C@H]2c2ccccc2)C1 |
